Data from PubChem BioAssay AID504824 (The Scripps Research Institute Molecular Screening Center, 2011).
Active and inactive are the calls of the source.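 Rule for the calls: active = compound reaching half of full procaspase-3 activation at 10 µM or lower; inactive = the rest.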

Biological target: Caspase-3 (Homo sapiens) (UniProt P42574)
Test: procaspase-3 activation potency of dual candidates, late-stage follow-up, counter-screen for dual procaspase-3/7 activator project, biochemical, absorbance, PC-3 D3A mutant, powder samples (AID 504824)
Details: recombinant PC-3 D3A, Ac-DEVD-pNA absorbance 405 nm

Sequence of Caspase-3 (Homo sapiens) (P42574 whole entry D9A/D28A/D175A): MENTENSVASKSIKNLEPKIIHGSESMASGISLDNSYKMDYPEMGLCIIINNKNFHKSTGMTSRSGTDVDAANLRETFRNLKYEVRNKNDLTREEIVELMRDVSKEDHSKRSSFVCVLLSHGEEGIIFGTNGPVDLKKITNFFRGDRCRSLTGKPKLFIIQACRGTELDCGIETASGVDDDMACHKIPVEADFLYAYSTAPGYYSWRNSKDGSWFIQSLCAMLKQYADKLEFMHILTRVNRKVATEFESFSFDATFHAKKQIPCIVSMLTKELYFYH

| Compound | EC50 |
| --- | --- |
| Cc1[nH]nc2c1C(c1c[nH]c3ccccc13)C(C#N)=C(N)O2 (stereo not given) | 3.62 µM |
| O=C(Nc1ccc(Cc2ccncc2)cc1)C1CCC(N2C(=O)C3C4C=CC(C5CC45)C3C2=O)CC1 (stereo not given) | > 85.3 µM (inactive) |
| COc1ccccc1N1C(=O)C2C(C(=O)c3ccccc3)=NN(c3ccccc3)C2C1=O (stereo not given) | > 85.3 µM (inactive) |
| COC(=O)C1=NN(c2ccc(Cl)cc2)C2C(=O)N(c3ccccc3OC)C(=O)C12 (stereo not given) | > 85.3 µM (inactive) |
| O=C(C1=NN(c2ccccc2)C2C(=O)N(c3ccccc3)C(=O)C12)c1ccccc1 (stereo not given) | > 85.3 µM (inactive) |
